Test [1] has as its system Beet Armyworm (Spodoptera exigua) ("BAW"), second instar larvae. Kind of test: Bioassay on beet armyworm (BAW), 128-well diet tray assay. Format: in vivo. The settings on record: Spodoptera exigua, read-out: BAW (Biological Results, rating). In short, it runs like this: (§1)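 Covered trays were held at 25° C. under a 14:10 light-dark cycle for five to seven days. Percent mortality was then scored in each well, and activity across eight wells was averaged.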

In test [2] the test system is Cabbage Looper (Trichoplusia ni) ("CL"), second instar larvae. Kind of test: Bioassay on cabbage looper (CL), 128-well diet tray assay. Format: in vivo. The settings on record: Trichoplusia ni, read-out: CL (Biological Results, rating). An outline of the steps: as §1

For `Cc1ccc(COCC(F)(F)F)c(N2C(=O)CS/C2=N\C(=O)Nc2ccc(-c3ncn(-c4ccc(OC(F)(F)F)cc4)n3)cc2C(F)(F)F)c1` [Compound J165, (Z)-1-(3-(5-Methyl-2-((2,2,2-trifluoroethoxy)methyl)phenyl)-4-oxothiazolidin-2-ylidene)-3-(4-(1-(4-(trifluoromethoxy)phenyl)-1H-1,2,4-triazol-3-yl)-2-(trifluoromethyl)phenyl)urea], the pest or weed control at 50 µg/cm2 in test [1] and in test [2] was 50 to 100% in each case.
In the case of `CC(C)c1ccc(N(C)C)cc1N1C(=O)CS/C1=N\C(=O)Nc1ccc(-c2ncn(-c3ccc(OC(F)(F)F)cc3)n2)cc1Cl` [Compound J166, (Z)-1-(2-Chloro-4-(1-(4-(trifluoromethoxy)phenyl)-1H-1,2,4-triazol-3-yl)phenyl)-3-(3-(5-(dimethylamino)-2-isopropylphenyl)-4-oxothiazolidin-2-ylidene)urea], the pest or weed control at 50 µg/cm2 in test [1] and in test [2] was 50 to 100% throughout.
For the compound `Cc1ccc(COCC(F)(F)F)c(N2C(=O)CS/C2=N\C(=O)Nc2ccc(-c3ncn(-c4ccc(C(F)(F)F)cc4)n3)cc2C)c1` [Compound J167, (Z)-1-(3-(5-Methyl-2-((2,2,2-trifluoroethoxy)methyl)phenyl)-4-oxothiazolidin-2-ylidene)-3-(2-methyl-4-(1-(4-(trifluoromethyl)phenyl)-1H-1,2,4-triazol-3-yl)phenyl)urea], the pest or weed control at 50 µg/cm2 in test [1] and in test [2] was 50 to 100% in each case.
In the case of `COCOc1cc(-c2ncn(-c3ccc(OC(F)(F)F)cc3)n2)ccc1NC(=O)/N=C1\SCC(=O)N1c1cc(C)ccc1C(C)C` [Compound J170, (Z)-1-(3-(2-Isopropyl-5-methylphenyl)-4-oxothiazolidin-2-ylidene)-3-(2-(methoxymethoxy)-4-(1-(4-(trifluoromethoxy)phenyl)-1H-1,2,4-triazol-3-yl)phenyl)urea], the pest or weed control at 50 µg/cm2 in test [1] and in test [2] was 50 to 100% throughout.
Take `COCOc1cc(-c2ncn(-c3ccc(OC(F)(F)F)cc3)n2)ccc1NC(=O)/N=C1\SCC(=O)N1c1cc(C)ccc1OCC(F)(F)F` [Compound J171, (Z)-1-(2-(Methoxymethoxy)-4-(1-(4-(trifluoromethoxy)phenyl)-1H-1,2,4-triazol-3-yl)phenyl)-3-(3-(5-methyl-2-(2,2,2-trifluoroethoxy)phenyl)-4-oxothiazolidin-2-ylidene)urea]: the pest or weed control at 50 µg/cm2 in test [1] and in test [2] was 50 to 100% each time.
As for `COCOc1cc(-c2ncn(-c3ccc(OC(F)(F)F)cc3)n2)ccc1NC(=O)/N=C1\SCC(=O)N1c1cc(C)ccc1COCC(F)(F)F` [Compound J173, (Z)-1-(2-(Methoxymethoxy)-4-(1-(4-(trifluoromethoxy)phenyl)-1H-1,2,4-triazol-3-yl)phenyl)-3-(3-(5-methyl-2-((2,2,2-trifluoroethoxy)methyl)phenyl)-4-oxothiazolidin-2-ylidene)urea], the pest or weed control at 50 µg/cm2 in test [1] and in test [2] was 50 to 100% each time.
For the compound `CCOC(C)c1ccc(C)cc1N1C(=O)CS/C1=N\C(=O)Nc1ccc(-c2ncn(-c3ccc(OC(F)(F)F)cc3)n2)cc1OCOC` (stereo not shown) [Compound J174, (Z)-1-(3-(2-(1-Ethoxyethyl)-5-methylphenyl)-4-oxothiazolidin-2-ylidene)-3-(2-(methoxymethoxy)-4-(1-(4-(trifluoromethoxy)phenyl)-1H-1,2,4-triazol-3-yl)phenyl)urea], the pest or weed control at 50 µg/cm2 in test [1] and in test [2] was 50 to 100% in each case.
Regarding `Cc1ccc(C(C)C)c(N2C(=O)CS/C2=N\C(=O)Nc2ccc(-c3ncn(-c4ccc(OC(F)(F)F)cc4)n3)cc2O)c1` [Compound J175, (Z)-1-(2-hydroxy-4-(1-(4-(trifluoromethoxy)phenyl)-1H-1,2,4-triazol-3-yl)phenyl)-3-(3-(2-isopropyl-5-methylphenyl)-4-oxothiazolidin-2-ylidene)urea], the pest or weed control at 50 µg/cm2 in test [1] and in test [2] was 50 to 100% in each case.
For `Cc1ccc(COCC(F)(F)F)c(N2C(=O)CS/C2=N\C(=O)Nc2ccc(-c3ncn(-c4ccc(OC(F)(F)F)cc4)n3)cc2O)c1` [Compound J178, (Z)-1-(2-Hydroxy-4-(1-(4-(trifluoromethoxy)phenyl)-1H-1,2,4-triazol-3-yl)phenyl)-3-(3-(5-methyl-2-((2,2,2-trifluoroethoxy)methyl)phenyl)-4-oxothiazolidin-2-ylidene)urea], the pest or weed control at 50 µg/cm2 in test [1] and in test [2] was 50 to 100% throughout.
Regarding `CCOC(C)c1ccc(C)cc1N1C(=O)CS/C1=N\C(=O)Nc1ccc(-c2ncn(-c3ccc(OC(F)(F)F)cc3)n2)cc1O` (stereo not shown) [Compound J179, (Z)-1-(3-(2-(1-Ethoxyethyl)-5-methylphenyl)-4-oxothiazolidin-2-ylidene)-3-(2-hydroxy-4-(1-(4-(trifluoromethoxy)phenyl)-1H-1,2,4-triazol-3-yl)phenyl)urea], the pest or weed control at 50 µg/cm2 in test [1] and in test [2] was 50 to 100% in each case.
On to `CN(C)c1ccc(C(F)(F)F)c(N2C(=O)CS/C2=N\C(=O)Nc2ccc(-c3ncn(-c4ccc(OC(F)(F)F)cc4)n3)cc2F)c1` [Compound J182, (Z)-1-(3-(5-(Dimethylamino)-2-(trifluoromethyl)phenyl)-4-oxothiazolidin-2-ylidene)-3-(2-fluoro-4-(1-(4-(trifluoromethoxy)phenyl)-1H-1,2,4-triazol-3-yl)phenyl)urea], for which the pest or weed control at 50 µg/cm2 in test [1] and in test [2] was 50 to 100% in each case.
Take `CN(C)c1ccc(OCCC(F)(F)F)c(N2C(=O)CS/C2=N\C(=O)Nc2ccc(-c3ncn(-c4ccc(C(F)(F)F)cc4)n3)cc2F)c1` [Compound J184, (Z)-1-(3-(5-(Dimethylamino)-2-(3,3,3-trifluoropropoxy)phenyl)-4-oxothiazolidin-2-ylidene)-3-(2-fluoro-4-(1-(4-(trifluoromethyl)phenyl)-1H-1,2,4-triazol-3-yl)phenyl)urea]: the pest or weed control at 50 µg/cm2 in test [1] and in test [2] was 50 to 100% throughout.
On to `Cc1ccc(COCC(F)(F)F)c(N2C(=O)CS/C2=N\C(=O)Nc2ccc(-c3ncn(-c4ccc(SC(F)(F)F)cc4)n3)cc2F)c1` [Compound J186, (Z)-1-(2-Fluoro-4-(1-(4-((trifluoromethyl)thio)phenyl)-1H-1,2,4-triazol-3-yl)phenyl)-3-(3-(5-methyl-2-((2,2,2-trifluoroethoxy)methyl)phenyl)-4-oxothiazolidin-2-ylidene)urea], for which the pest or weed control at 50 µg/cm2 in test [1] and in test [2] was 50 to 100% throughout.
With `COC(C)c1ccc(C)cc1N1C(=O)CS/C1=N\C(=O)Nc1ccc(-c2ncn(-c3ccc(SC(F)(F)F)cc3)n2)cc1F` (stereo not shown) [Compound J187, (Z)-1-(2-Fluoro-4-(1-(4-((trifluoromethyl)thio)phenyl)-1H-1,2,4-triazol-3-yl)phenyl)-3-(3-(2-(1-methoxyethyl)-5-methylphenyl)-4-oxothiazolidin-2-ylidene)urea], the pest or weed control at 50 µg/cm2 in test [1] and in test [2] was 50 to 100% in each case.
For `CC(=O)N(C)c1ccc(C(C)C)c(N2C(=O)CS/C2=N\C(=O)Nc2ccc(-c3ncn(-c4ccc(OC(F)(F)F)cc4)n3)cc2F)c1` [Compound J188, (Z)-N-(3-(2-(((2-Fluoro-4-(1-(4-(trifluoromethoxy)phenyl)-1H-1,2,4-triazol-3-yl)phenyl)carbamoyl)imino)-4-oxothiazolidin-3-yl)-4-isopropylphenyl)-N-methylacetamide], the pest or weed control at 50 µg/cm2 in test [1] and in test [2] was 50 to 100% each time.
With `CCOCc1ccc(C)cc1N1C(=O)CS/C1=N\C(=O)Nc1ccc(-c2ncn(-c3ccc(SC(F)(F)F)cc3)n2)cc1F` [Compound J195, (Z)-1-(3-(2-(Ethoxymethyl)-5-methylphenyl)-4-oxothiazolidin-2-ylidene)-3-(2-fluoro-4-(1-(4-((trifluoromethyl)thio)phenyl)-1H-1,2,4-triazol-3-yl)phenyl)urea], the pest or weed control at 50 µg/cm2 in test [1] and in test [2] was 50 to 100% throughout.
With `O=C(/N=C1\SCC(=O)N1c1ccccc1N1CCCCC1)Nc1ccc(-c2ncn(-c3ccc(OC(F)(F)F)cc3)n2)cc1F` [Compound J198, (Z)-1-(2-Fluoro-4-(1-(4-(trifluoromethoxy)phenyl)-1H-1,2,4-triazol-3-yl)phenyl)-3-(4-oxo-3-(2-(piperidin-1-yl)phenyl)thiazolidin-2-ylidene)urea], the pest or weed control at 50 µg/cm2 in test [1] and in test [2] was 50 to 100% throughout.
As to `CC(=O)N(C)c1ccc(C(C)C)c(N2C(=O)CS/C2=N\C(=O)Nc2ccc(-c3ncn(-c4ccc(OC(F)(F)F)cc4)n3)cc2C)c1` [Compound J199, (Z)-N-(4-Isopropyl-3-(2-(((2-methyl-4-(1-(4-(trifluoromethoxy)phenyl)-1H-1,2,4-triazol-3-yl)phenyl)carbamoyl)imino)-4-oxothiazolidin-3-yl)phenyl)-N-methylacetamide], the pest or weed control at 50 µg/cm2 in test [1] and in test [2] was 50 to 100% each time.
`CCN(C(C)=O)c1ccc(C(C)C)c(N2C(=O)CS/C2=N\C(=O)Nc2ccc(-c3ncn(-c4ccc(OC(F)(F)F)cc4)n3)cc2C)c1` [Compound J200, (Z)-N-Ethyl-N-(4-isopropyl-3-(2-(((2-methyl-4-(1-(4-(trifluoromethoxy)phenyl)-1H-1,2,4-triazol-3-yl)phenyl)carbamoyl)imino)-4-oxothiazolidin-3-yl)phenyl)acetamide]: the pest or weed control at 50 µg/cm2 in test [1] and in test [2] was 50 to 100% in each case.
As to `Cc1ccc(COCC(F)(F)F)c(N2C(=O)CS/C2=N\C(=O)Nc2ccc(-c3ncn(-c4ccc(SC(F)(F)F)cc4)n3)cc2C)c1` [Compound J204, (Z)-1-(3-(5-Methyl-2-((2,2,2-trifluoroethoxy)methyl)phenyl)-4-oxothiazolidin-2-ylidene)-3-(2-methyl-4-(1-(4-((trifluoromethyl)thio)phenyl)-1H-1,2,4-triazol-3-yl)phenyl)urea], the pest or weed control at 50 µg/cm2 in test [1] and in test [2] was 50 to 100% each time.

Source of the values: patent US20230077362A1 (CORTEVA AGRISCIENCE LLC, priority 2019, published 2023).
